In publication PMC2946430 (Biosensors & bioelectronics, 2010):

Key:
[1] = system: phosphorylation of MAPK and Akt in H1650-ER1, H1650-ER2 and H1650-ER4 cells; assay: Western blot of MAPK and Akt phosphorylation, resistant clones; format: cell-based, human; settings: for suppression of p-AKT and p-MAPK levels: resistant H1650-ER1 cells compared to parent H1650 cells
[2] = biological target: EGFR kinase activity in H1650-ER1, H1650-ER2, H1650-ER4 cell lysates (Homo sapiens, UniProt P00533, DEL746-750)
[3] = system: EGFR kinase activity in H23 cell lysate (wild type EGFR); assay: Hydrogel-based peptide array kinase assay, H23 cell lysate; format: biochemical, human; settings: 0-50 μM, compared with H1650
H1650 cells [4] = assay: Clonogenic assay, parental H1650; format: cell-based, human; settings: parental H1650, continuous exposure 10 μM and 50 μM, 15 days
[5] = system: phosphorylation of MAPK and Akt in H1650 cells; assay: Western blot of MAPK and Akt phosphorylation, parental H1650; format: cell-based, human
H1650 cells [6] = assay: cells; settings: Homo sapiens, NCI-H1650, 48 h, read-out: IC50, cell proliferation/viability
[7] = system: erlotinib-resistant H1650 clones; assay: cells; settings: Homo sapiens, NCI-H1650, 48 h, read-out: IC50, cell proliferation/viability

SMILES: CC#CC(=O)Nc1ccc2ncnc(Nc3cccc(Br)c3)c2c1 [CL-387,785]
- suppression of p-AKT and p-MAPK levels [1]: persistent activity

SMILES: C[C@@H](Nc1ncnc2[nH]c(-c3ccc(O)cc3)cc12)c1ccccc1 [PKI-166]
- IC50 [2]: > 10 µM

SMILES: C#Cc1cccc(Nc2ncnc3cc(OCCOC)c(OCCOC)cc23)c1 [erlotinib]
- effect on substrate phosphorylation by H23 lysate [3]: much less effective
- colony formation (H1650 cells [4]): very few colonies
- MAPK phosphorylation ([5]; parental H1650, 0, 1 and 10 μM for 5 hr, Western blot): attenuation in MAPK phosphorylation
- Akt phosphorylation ([5]; parental H1650, Western blot): did not affect
- MAPK phosphorylation ([1]; H1650-ER1, H1650-ER2, H1650-ER4, 0, 1 and 10 μM for 5 hr): maintained
- suppression of p-AKT and p-MAPK levels [1]: reduced efficacy
- Akt phosphorylation ([1]; resistant clones): did not affect
- IC50 (H1650 cells [6]): ~2.4 µM
- IC50 [7]: > 20 µM
